Reference: US20260091051A1, “USE OF NMN FOR THE PREVENTION AND/OR TREATMENT OF PAIN, AND CORRESPONDING COMPOSITIONS” (Nuvamid SA, priority 2019, published 2026)
Read-outs that look alike come from different tables or passages of the source.

Assays:
[1] = test system: acute cystitis induced by cyclophosphamide (CYP) in female Sprague-Dawley rats; details: for nociceptive scores (CYP-induced visceral pain) / nociceptive threshold (CYP-induced allodynia): 500 mg/kg p.o., 15 min before CYP 150 mg/kg i.p.; for nociceptive scores (CYP-induced visceral pain): vs carrier; for visceral pain induced by the CYP (conclusion): single oral treatment 500 mg/kg
Protocol: Animals: Sprague-Dawley female rats, 7 weeks old as of their birth
Acute Cystitis Induced by CYP: The CYP was injected via intraperitoneal injection at 150 mg/kg in a final volume of 5 ml/kg of saline solution.
The rats were placed in individual Plexiglas boxes with a metal wire mesh floor and allowed to adapt to the chamber for a period of at least 30 minutes prior to the commencement of any testing. Eight von Frey filaments with increasing levels of force viz 1, 2, 4, 6, 8, 10, 15, and 26 g were used. Each calibrated filament was applied 3 times to the lower abdominal area, near the bladder.
• Score 0=no response • Score 1=retraction of the abdomen • Score 2=stamping or changing of position • Score 3=wheezing or squealing, or abdominal curvature, or licking of the site stimulated with von Frey filaments
For each rat, the results were expressed as follows: • Nociceptive threshold: first von Frey force level for which the stimulus is perceived as being painful (the score ≥1 is obtained)=>lowered threshold=allodynia • Nociceptive score: % of the maximum response (total=9 for 3 combined applications) for each filament=>Overall response to pain
Experimental Groups (6 Rats Per Group): • Group 1: Carrier (5 ml/kg)+CYP • Group 2: NMN (500 mg/kg)+CYP • Group 3: Compound A (500 mg/kg)+CYP • Group 4: Compound B (500 mg/kg)+CYP

[2] = test system: cyclophosphamide-induced cystitis (visceral nociceptive pain) in female Sprague-Dawley rats; experiment: Visceral pain model of cyclophosphamide-induced cystitis in rats, von Frey filaments (Example 1); type: in vivo, rat; details: for nociceptive threshold (threshold of tolerance to pain, allodynia): CYP-treated rats; for nociceptive threshold (threshold of tolerance to pain, allodynia) / nociceptive score: NMN 500 mg/kg or ibuprofen 300 mg/kg oral
Protocol: The effectiveness of the use of NMN according to the invention was evaluated in rats in a model of nociceptive pain. More precisely, the model used is a visceral pain model. The administration of cyclophosphamide (CYP) serves as the means to simulate cystitis in rats.
The positive control is ibuprofen, a non-steroidal anti-inflammatory drug frequently prescribed to relieve nociceptive pain. The negative control is the carrier for NMN and ibuprofen, that is to say, distilled water.
For this study, 7-week-old female Sprague-Dawley rats were divided into three groups, each group comprising of 6 rats: • a control group who received 5 ml of distilled water (carrier); • a group treated with NMN at 500 mg/kg; and • a group treated with ibuprofen at 300 mg/kg.
The NMN is in the form of zwitterion.
After 24 hours of adaptation, a test to measure the threshold of pain tolerance of each animal was carried out with von Frey filaments prior to the start of the study. This measurement prior to any exposure to a painful stimulus makes it possible to obtain the baseline pain tolerance threshold level in the animals and serves as a negative control.
Von Frey filaments are used as a device for measuring the sensitivity of the skin to touch. The use of von Frey filaments makes it possible to test for allodynia and hyperalgesia in rodents. Briefly put, each filament corresponds to a given force. The filaments are applied in ascending order of increasing force to the animal's skin. The rodents in effect have a reflex to withdraw when an unexpected contact occurs. The withdrawal in response to a force exerted on the rodent is indicative of the animal's threshold of tolerance to pain. The use of von Frey filaments is commonly implemented for measurement of pain in rodents (Deuis J R, Dvorakova L S and Vetter I (2017) Methods Used to Evaluate Pain Behaviors in Rodents. Front. Mol. Neurosci. 10:284.).
In the present study, eight filaments in ascending order of increasing force, of 1 g, 2 g, 4 g, 6 g, 8 g, 10 g, 15 g, and 26 g, were used and applied three times each to the animal's abdomen, near the bladder. The animal's response was assessed as follows: • score 0: no response • score 1: retraction of the abdomen • score 2: stamping or changing of position of the animal • score 3: twitching, or curving or rounding of the abdomen, or licking of the area stimulated by the von Frey filament.
For each rat, the results are expressed as follows: • nociceptive threshold: first force level at which a response from the animal is observed (response score greater than or equal to 1). This indicates the lowest threshold of tolerance to pain for measuring allodynia; • nociceptive score: percentage of the maximum response for each filament. This indicates the overall pain response.
The animals of each of the groups receive either the carrier, or NMN at 500 mg/kg, or ibuprofen at 300 mg/kg administered via the oral route. After administration of the compounds to be tested (carrier, NMN, or ibuprofen), cyclophosphamide is injected via the intraperitoneal route into each rat. The cyclophosphamide induces strong inflammation in the bladder and simulates a pain induced by a urinary tract infection such as cystitis.
The test with the von Frey filaments is repeated at 2 hr and then subsequently at 4 hr after injection of the cyclophosphamide in order to measure the pain response of the animals.
The results were analysed by a one-way analysis of variance (ie one-way ANOVA) test supplemented by a Dunnett's test or by a two-way ANOVA analysis. With regard to statistical significance, * signifies that p<0.05, ** signifies that p<0.01, and *** signifies that p<0.001, as compared to the group treated with the carrier.

[3] = T=2 h after CYP injection, vs carrier (FIG. 3B)
[4] = T=4 h after CYP injection, vs carrier (FIG. 3C)

| Compound | nociceptive scores (CYP-induced visceral pain) ([1]; +2 hr) | nociceptive threshold (CYP-induced allodynia) ([1]; +2 hr, vs carrier (FIG. 6A)) | nociceptive scores (CYP-induced visceral pain) ([1]; +4 hr) | nociceptive threshold (CYP-induced allodynia) ([1]; +4 hr, vs carrier (FIG. 6B)) | visceral pain induced by the CYP (conclusion) ([1]; +2 hr) | visceral pain induced by the CYP (conclusion) ([1]; +4 hr) | nociceptive threshold (threshold of tolerance to pain, allodynia) ([2]; T0, vs carrier (FIG. 3A)) | nociceptive threshold (threshold of tolerance to pain, allodynia) [2, 3] | nociceptive threshold (threshold of tolerance to pain, allodynia) [2, 4] | nociceptive score ([2]; 2 hours after CYP (FIG. 4B)) | nociceptive score ([2]; 4 hours after CYP (FIG. 4C)) | pain tolerance threshold (nociceptive threshold) after cyclophosphamide ([2]; carrier-treated rats, intraperitoneal cyclophosphamide, 10 g before administration (FIG. 1B)) | nociceptive threshold after CYP vs baseline response ([1]; CYP 150 mg/kg i.p., carrier-treated group, 2 hours and 4 hours post injection (FIG. 2A)) | nociceptive scores after CYP vs baseline response ([1]; CYP 150 mg/kg i.p., carrier-treated group, 2 hours and 4 hours post injection (FIG. 2B)) |
| --- | --- | --- | --- | --- | --- | --- | --- | --- | --- | --- | --- | --- | --- | --- |
| NC(=O)c1ccc[n+]([C@H]2O[C@H](COP(=O)([O-])O)[C@@H](O)[C@H]2O)c1 [Compound A, alpha nicotinamide mononucleotide] | decrease in the nociceptive scores | increase in the nociceptive threshold | only achieved the level of statistical significance at +4 h | significant at +4 hr | reduced the visceral pain | only achieving the level of significance at +4 hr |  |  |  |  |  |  |  |  |
| NC(=O)c1ccc[n+]([C@@H]2O[C@H](COP(=O)([O-])O)[C@@H](O)[C@H]2O)c1 [NMN, nicotinamide mononucleotide] | significant decrease in the nociceptive scores | slight increase in the nociceptive threshold | significant decrease in the nociceptive scores | slight increase in the nociceptive threshold | relieved the visceral pain | relieved the visceral pain | increase the response threshold to nociceptive pain significantly | increase the response threshold to nociceptive pain significantly | increase the response threshold to nociceptive pain significantly | reducing the nociceptive score | reducing the nociceptive score |  |  |  |
| O=P1(N(CCCl)CCCl)NCCCO1 (stereo not shown) [cyclophosphamide, reference compound] |  |  |  |  |  |  |  |  |  |  |  | 3 g | significant decrease in the nociceptive threshold | significant increase in the nociceptive scores |
| CC(C)Cc1ccc(C(C)C(=O)O)cc1 (stereo not shown) [ibuprofen] |  |  |  |  |  |  | significantly increase the threshold of tolerance to pain | significantly increase the threshold of tolerance to pain | significantly increase the threshold of tolerance to pain | reducing the nociceptive score | reducing the nociceptive score |  |  |  |
| di-NMN [Compound B] | no effect was observed | no effect | significant decrease in the nociceptive scores | significant increase in the nociceptive threshold | no beneficial effect | significant anti-nociceptive activity |  |  |  |  |  |  |  |  |
